Columns and labels:
Format in all cases: functional
Mus musculus [1] = assay: Inhibition of PMA-induced ear edema in Swiss mouse at 3 mg/ear after 1 hr
Mus musculus [2] = assay: Inhibition of PMA-induced ear edema in Swiss mouse at 3 mg/ear after 3 hrs
Mus musculus [3] = assay: Inhibition of PMA-induced ear edema in Swiss mouse at 3 mg/ear after 5 hrs

| SMILES | inhibition (INH) (Mus musculus [1]) | inhibition (INH) (Mus musculus [2]) | inhibition (INH) (Mus musculus [3]) |
| --- | --- | --- | --- |
| COc1ccc(-c2oc3cc(O)cc(O)c3c(=O)c2OC)cc1 [ERMANIN] | 95.1% | 71.1% | 78.3% |
| COc1ccc2c(c1)c(CC(=O)O)c(C)n2C(=O)c1ccc(Cl)cc1 [INDOMETHACIN] | 47.3% | 38.6% | 51.2% |
| COc1ccc(-c2oc3cc(O)c(OC)c(O)c3c(=O)c2OC)cc1 [SANTIN] | 80.5% | 76.3% | 81.1% |
